Measurements taken from US4932991A, “Thiopyridine-N-oxides, thiopyridines, and thiopyrimidines as urease inhibitors” (Tennessee Valley Authority, priority 1988, dated 1990).
“Also recorded” adds a separate entry of the source.

System: soil urease
Test: Urea hydrolysis in bands of urea in soil (banded soil system urease inhibition test)
Assay type: biochemical
Details: for % inhibition, 3 days (as measured by percent urea unhydrolyzed) / % inhibition, 6 days (as measured by percent urea unhydrolyzed): Hastings silt loam soil, 25° C., inhibitor 41 mg/band with urea 410 mg/band (10% of urea wt/wt), two replicates; for % inhibition, 3 days (as measured by percent urea unhydrolyzed): 3 days incubation; for % inhibition, 6 days (as measured by percent urea unhydrolyzed): 6 days incubation; for urease inhibition effectiveness in soil (in words): banded soil system, three- and six-day tests, compared with PPDA
Description: Test compounds in Example I, infra, were evaluated in soil systems by an alternative procedure in which powdered mixtures of urea and test compounds were applied in narrow bands in the soil rather than being mixed throughout the soil. The banded configuration is not only applicable to banded applications but also results in concentration gradients of urea, urea hydrolysis products, test compounds, and test compound decomposition products similar to those in the immediate vicinity of urea granules containing test compounds. Another advantage of the banded configuration compared with mixing throughout the soil is that slightly soluble test compounds can be easily band applied, whereas it is difficult to achieve a known degree of mixing of a small quantity of slightly soluble test compound with soil. The banded configuration also enables testing for urease inhibition under realistic soil conditions prior to the development of techniques for cogranulating a wide range of test compounds with urea.
Specifics of the procedure for evaluating test compounds in Example I were as follows. Urease-active soil (Hastings silt loam) was moistened to a moisture content of 20% (dry weight basis) and preincubated at room temperature for two days. Plexiglass containers (6×6×6 cm) were one-half filled with soil and packed to a bulk density of 1.1 g/cm^3. Urea or urea plus inhibitor (thoroughly mixed) was distributed in a narrow band 6 cm long and about 0.5 cm wide on the soil surface. The containers then were filled with soil, again packing to a bulk density of 1.1 g/cm^3. The containers were incubated at 25° C. for the desired reaction period, after which the containers were frozen to about -5° C. to halt urea hydrolysis. Immediately prior to extracting the remaining urea from the soil, said soil was allowed to thaw. Soil from each container was thoroughly mixed, and a 10-g sample was extracted with 100 ml of 2M KCl containing phenylmercuric acetate to prevent urea hydrolysis during handling [L. A. Douglass, J. M. Bremner, Soil Sci. Soc. Am. Proc. 34, 859-862 (1970a)]. Urea in the extracts was determined with an automated version of the colorimetric procedure [L. A. Douglass, J. M. Bremner, Anal. Letters 3, 79-87 (1970b)].
Urease-active soil (Hastings silt loam) was moistened to a moisture content of 20% and preincubated at room temperature for two days. Plexiglass containers (6×6×6 cm) were one-half filled with soil and packed to a bulk density of 1.1 g/cm^3. Urea or urea plus inhibitor (thoroughly mixed) was distributed in a narrow band some 6 cm long and about 0.5 cm wide on the surface of the soil. The containers then were filled with soil and again packed to a bulk density of 1.1 g/cm^3. The containers were incubated at 25° C. for the desired reaction period.
The soil from each container was thoroughly mixed, and 10-g sample was extracted with 100 ml of 2M KCl containing 5 ppm phenylmercuric acetate to prevent urea hydrolysis during handling [L. A. Douglass, J. M. Bremner, Soil Sci. Soc. Am. Proc.34, 859-862 (1970); L. A. Douglass, J. M. Bremner, Anal. Letters 3, 79-87 (1970b)]. The urea in the extracts was determined colorimetrically as a measure of the unhydrolyzed urea.

SMILES: [O-][n+]1ccccc1SSc1cccc[n+]1[O-] [DTPNO, 2,2-Dithiobis-pyridine-N-oxide]
- % inhibition, 3 days (as measured by percent urea unhydrolyzed) (Test Series I): 92.2%
- % inhibition, 6 days (as measured by percent urea unhydrolyzed) (Test Series I): 46.4%
- % inhibition, 3 days (as measured by percent urea unhydrolyzed) (Test Series II): 92.6%
- % inhibition, 6 days (as measured by percent urea unhydrolyzed) (Test Series II): 38.9%
- urease inhibition effectiveness in soil (in words): as effective an inhibitor as PPDA; also recorded: excellent urease inhibition characteristics

SMILES: Sc1ncccn1 [MPM, 2-Mercaptopyrimidine]
- % inhibition, 3 days (as measured by percent urea unhydrolyzed) (Test Series II): 72.8%
- % inhibition, 6 days (as measured by percent urea unhydrolyzed) (Test Series II): 44.6%
- urease inhibition effectiveness in soil (in words): excellent urease inhibitors

SMILES: Oc1cccnc1S [MPOL, 2-Mercapto-3-pyridinol]
- % inhibition, 3 days (as measured by percent urea unhydrolyzed) (Test Series II): 40.1%
- % inhibition, 6 days (as measured by percent urea unhydrolyzed) (Test Series II): 0%
- urease inhibition effectiveness in soil (in words): significantly lower inhibition

SMILES: c1ccc(SSc2ccccn2)nc1 [AT, Aldrithiol]
- % inhibition, 3 days (as measured by percent urea unhydrolyzed) (Test Series I): 42.9%
- % inhibition, 6 days (as measured by percent urea unhydrolyzed) (Test Series I): 0.7%
- urease inhibition effectiveness in soil (in words): possesses even the smallest urease activity

SMILES: c1ccc(-c2ccccn2)nc1 [DP, 2,2'-Dipyridyl]
- % inhibition, 3 days (as measured by percent urea unhydrolyzed) (Test Series I): 12.0%
- % inhibition, 6 days (as measured by percent urea unhydrolyzed) (Test Series I): 0.2%

SMILES: [O-][n+]1ccccc1 [PNO, Pyridine-N-Oxide]
- % inhibition, 3 days (as measured by percent urea unhydrolyzed) (Test Series II): 11.3%
- % inhibition, 6 days (as measured by percent urea unhydrolyzed) (Test Series II): 0%
- urease inhibition effectiveness in soil (in words): significantly lower inhibition

SMILES: NP(N)(=O)Oc1ccccc1 [PPDA, Phenyl phosphorodiamidate]
- % inhibition, 3 days (as measured by percent urea unhydrolyzed) (Test Series I): 95.6%
- % inhibition, 6 days (as measured by percent urea unhydrolyzed) (Test Series I): 59.6%
- % inhibition, 3 days (as measured by percent urea unhydrolyzed) (Test Series II): 92.1%
- % inhibition, 6 days (as measured by percent urea unhydrolyzed) (Test Series II): 54.2%

SMILES: O=[N+]([O-])c1ccc(SSc2ccc([N+](=O)[O-])cn2)nc1 [DTNP, 2,2-Dithio-5-nitropyridine]
- % inhibition, 3 days (as measured by percent urea unhydrolyzed) (Test Series I): 8.6%
- % inhibition, 6 days (as measured by percent urea unhydrolyzed) (Test Series I): 0.5%

SMILES: Sc1ccccn1 [MP, 2-Mercaptopyridine]
- % inhibition, 3 days (as measured by percent urea unhydrolyzed) (Test Series II): 80.2%
- % inhibition, 6 days (as measured by percent urea unhydrolyzed) (Test Series II): 37.8%
- urease inhibition effectiveness in soil (in words): excellent urease inhibitors

SMILES: [O-][n+]1ccccc1S [MPNO, 2-Mercaptopyridine-N-Oxide]
- % inhibition, 3 days (as measured by percent urea unhydrolyzed) (Test Series II): 76.8%
- % inhibition, 6 days (as measured by percent urea unhydrolyzed) (Test Series II): 32.2%
- urease inhibition effectiveness in soil (in words): excellent urease inhibition characteristics
